From PubChem BioAssay AID1996 come the findings set out here.

Molecules are shown by their SMILES. Converted amounts (≈) assume the structure as drawn.

The conditions of the data set: buffer; pH 7.4; 200.0 µM.
In turn, `O=C(NC(=S)N1CCN(c2ccc(O)cc2)CC1)c1cccs1` registered a kinetic solubility of 41.7 µg/mL (≈ 120 µM).

On to `Cc1nc2ccc(S(=O)(=O)N3CCCCC3)cc2s1`, for which the kinetic solubility stood at 21.4 µg/mL (≈ 72.2 µM).

As to `Cc1ccccc1NC(=O)CCN1CCN(C)CC1`, the solubility (kinetic) was more than 39.2 µg/mL.

For `CC(=O)N1CCN(c2nc3ccc(Br)cc3s2)CC1`, the kinetic solubility amounted to 7.9 µg/mL (≈ 23.2 µM).

Consider `Cc1ccc(CONC(=O)c2ccccc2Cl)cc1`, for which the kinetic solubility is more than 41.4 µg/mL.

For `CN(Cc1ccccc1)C(=O)COc1cc(Cl)ccc1Cl`, the solubility (kinetic) is 24.1 µg/mL (≈ 74.3 µM).

The compound `O=C(NCc1ccco1)c1cc(Cl)nc(Cl)c1` gave a solubility (kinetic) of 40.3 µg/mL (≈ 149 µM).

`CC(NC(=O)COC(=O)c1ccccc1F)C1CC2CCC1C2` (stereo not given) came in with a solubility (kinetic) of more than 47.9 µg/mL.

`COC(=O)C1C(O)=C(C(C)=Nc2cccc3ccccc23)C(=O)CC1(C)C` (stereo not given) returned a kinetic solubility of 20.3 µg/mL (≈ 55.6 µM).

Consider `CS(=O)(=O)N1CCCC(C(=O)Nc2ccccc2)C1` (stereo not given), for which the kinetic solubility is 42.2 µg/mL (≈ 149 µM).

The compound `O=C(Cn1cc([N+](=O)[O-])cn1)NCCc1nc2ccccc2[nH]1` had a kinetic solubility of more than 47.1 µg/mL.

`Cc1ccc(C(=O)c2cc3c(cc2[N+](=O)[O-])OCCO3)cc1` came in with a solubility (kinetic) of 8 µg/mL (≈ 26.7 µM).

Compound `CN(C)C(=O)c1cc(C(=O)c2ccccc2F)c[nH]1` yielded a solubility (kinetic) of 38.9 µg/mL (≈ 149 µM).

Consider `CCCn1c(=O)c(C(=O)NC(C)c2ccccc2)c(O)c2ccccc21` (stereo not given), for which the kinetic solubility stood at 1.3 µg/mL (≈ 3.71 µM).

In turn, `Cc1cc(C(=O)COC(=O)c2ccco2)c(C)n1Cc1ccco1` came in with a kinetic solubility of 2.5 µg/mL (≈ 7.64 µM).

Consider `O=C1CN(C(=O)c2ccccc2C(=O)O)c2ccccc2N1`, for which the kinetic solubility is more than 44.4 µg/mL.

With `N/C(CN1CCCCC1)=N\S(=O)(=O)c1cc(Cl)cc(Cl)c1`, the kinetic solubility worked out at 3.7 µg/mL (≈ 10.6 µM).

For the compound `CC(C(=O)Nc1ccc(C#N)cc1)N(C)CC(=O)N(C)c1c(N)n(Cc2ccccc2)c(=O)[nH]c1=O` (stereo not given), the kinetic solubility was more than 73.4 µg/mL.

As for `c1ccc2oc(-c3csc(N4CCOCC4)n3)cc2c1`, the kinetic solubility was determined as 4.7 µg/mL (≈ 16.4 µM).

Regarding `CC(=O)N/C(=C\c1ccc(Cl)cc1)C(=O)O`, the solubility (kinetic) turned out to be 34.7 µg/mL (≈ 145 µM).

`CCC(C(=O)NC(C)c1ccccc1)C(=O)NC(C)c1ccccc1` (stereo not given) showed a solubility (kinetic) of 6.8 µg/mL (≈ 20.1 µM).

The compound `Cc1ccc[n+](CC(=O)Nc2ccc([N+](=O)[O-])cc2)c1.[Cl-]` yielded a solubility (kinetic) of more than 46.2 µg/mL.

Compound `COCCn1c(N2CCCC2)nc2c1c(=O)[nH]c(=O)n2C` yielded a solubility (kinetic) of more than 44 µg/mL.

`O=C(CN1C(=O)NC2(CCOc3ccccc32)C1=O)c1ccc(Cl)cc1` (stereo not given) returned a kinetic solubility of 1.3 µg/mL (≈ 3.51 µM).

Consider `O=S(=O)(Nc1ccccc1F)c1cccc(NC(=S)NCCN2CCOCC2)c1`, for which the kinetic solubility is 51.6 µg/mL (≈ 118 µM).

The compound `O=S1(=O)CCN2C=C(Cl)C=C(Cl)C2=N1` yielded a kinetic solubility of more than 38 µg/mL.

`COCCSc1ccccc1C(=O)Nc1ccccc1C#N`: the kinetic solubility is more than 46.9 µg/mL.

As to `CCC(C)[C@H](NC(=O)NCc1ccc(Cl)cc1)C(=O)O` (stereo not given in full), the kinetic solubility was more than 44.8 µg/mL.

In the case of `O=S(=O)(Nc1ccccc1)c1cccc2nsnc12`, the solubility (kinetic) worked out at 39.8 µg/mL (≈ 137 µM).

`CN1CC(C(=O)Nc2ccc(F)c(Cl)c2)CC1=O` (stereo not given) registered a kinetic solubility of more than 40.6 µg/mL.

In the case of `CCN(CC)C(=O)COCc1cc(-c2ccc3c(c2)OCO3)on1`, the solubility (kinetic) is more than 49.9 µg/mL.

Compound `CCOc1cc(N2CCOCC2)c(OCC)cc1NC(=O)c1cc(S(=O)(=O)N2CCOCC2)ccc1C` gave a solubility (kinetic) of more than 80 µg/mL.

Compound `Cc1cc(S(=O)(=O)N2CCN(c3ccccn3)CC2)ccc1F` returned a solubility (kinetic) of 3.6 µg/mL (≈ 10.7 µM).

For `COCCOC(=O)C1=C(C)NC(=O)NC1c1ccco1` (stereo not given), the kinetic solubility is more than 42 µg/mL.

In the case of `COC(=O)C1=C(C)NC(=O)NC1c1ccc(-c2ccc(Cl)cc2)o1` (stereo not given), the solubility (kinetic) worked out at 4.8 µg/mL (≈ 13.8 µM).

`CN(C1=NC(=O)CS1)c1ccc(O)cc1`: the solubility (kinetic) is more than 33.3 µg/mL.

`Clc1nc(NCc2ccco2)nc(N2CCCCC2)n1` yielded a kinetic solubility of 0.3 µg/mL (≈ 1.02 µM).

In turn, `O=C(Cc1ccc(Br)cc1)N1CCCC1` gave a solubility (kinetic) of 37.6 µg/mL (≈ 140 µM).

Take `Cc1onc(-c2ccccc2)c1C(=O)N1CCCC1`: the kinetic solubility was more than 38.4 µg/mL.

`CCCOc1ccc(C(=O)Nc2ccc(CN3CCOCC3)cc2)cc1` showed a kinetic solubility of 4.1 µg/mL (≈ 11.6 µM).

Compound `O=P(c1ccccc1)(c1ccccc1)C(O)c1ccccn1` (stereo not given) yielded a kinetic solubility of more than 46.4 µg/mL.

As for `CCOC(=O)C1CCN(C(=O)COC(=O)/C=C/c2cccc(OC)c2OC)CC1`, the solubility (kinetic) came to 60.5 µg/mL (≈ 149 µM).

Take `O=C1Nc2ccccc2C1Cc1ccccn1` (stereo not given): the kinetic solubility is more than 33.6 µg/mL.

In turn, `Cc1ccc(-c2onc3ccc(Br)cc23)cc1` came in with a solubility (kinetic) of less than 0.6 µg/mL.

In turn, `Cc1cccc(Nc2nnc(SCC(=O)NCC3CCCO3)s2)c1` (stereo not given) gave a kinetic solubility of more than 54.7 µg/mL.

As to `NC(=O)c1ccc(NC(=O)CCNC(=O)c2ccco2)cc1`, the solubility (kinetic) was 41.2 µg/mL (≈ 137 µM).

For the compound `CCCc1ccc2oc(C(=O)N3CCC(COC)C3)c(C)c2c1` (stereo not given), the kinetic solubility was determined as 24.7 µg/mL (≈ 78.3 µM).

For the compound `O=C1c2ccccc2NC(c2cccc(O)c2)N1O` (stereo not given), the kinetic solubility was more than 38.4 µg/mL.

The compound `O=C(Cc1ccc(Cl)cc1)N1CCc2ccccc2C1` gave a solubility (kinetic) of 37.2 µg/mL (≈ 130 µM).

In turn, `CNC(=O)COC(=O)COc1ccc2c(C)cc(=O)oc2c1` yielded a solubility (kinetic) of more than 45.8 µg/mL.

`O=C(NC1CCCCC1)C1CC(=O)N(c2ccccc2)C1` (stereo not given) registered a kinetic solubility of 38.5 µg/mL (≈ 134 µM).

Consider `OCCC1CN(C2CCSCC2)CCN1C1CCCC1` (stereo not given), for which the kinetic solubility was 34.5 µg/mL (≈ 116 µM).

In turn, `Cc1ccc(NC(=O)CC(=O)Nc2ccc(C)cc2)cc1` gave a kinetic solubility of less than 0.3 µg/mL.

In the case of `Cc1nc2ccccn2c1C(=O)C(=O)Nc1cc(F)ccc1F`, the solubility (kinetic) was determined as 4 µg/mL (≈ 12.7 µM).

`Cc1ccc(CNC(=O)N2CCN(S(=O)(=O)c3ccccc3)CC2)cc1` returned a kinetic solubility of 8.3 µg/mL (≈ 22.2 µM).

For `Cc1nn(C)c(NC(=O)c2ccccc2Cl)c1Br`, the solubility (kinetic) was more than 49.3 µg/mL.

In turn, `CCOc1nc(-c2ccccc2)c2cc(Br)ccc2n1` returned a kinetic solubility of less than 0.4 µg/mL.

As for `COc1ccccc1NC(=O)C(C)Sc1nccn1C` (stereo not given), the kinetic solubility is more than 43.7 µg/mL.

On to `COc1ccc(Br)c(C(=O)NC(C)(C)CO)c1`, for which the solubility (kinetic) is more than 45.3 µg/mL.

Take `Cc1n(Cc2ccccc2)c2ccccc2[n+]1Cc1ccccc1.[Cl-]`: the solubility (kinetic) stood at 51.9 µg/mL.

As for `CC1CC(NC2=NCCS2)CC(C)(C)C1` (stereo not given), the solubility (kinetic) is 24.6 µg/mL (≈ 109 µM).

`CCc1nc2ccccc2c(C(=O)Nc2ccc(F)cc2)c1C` gave a solubility (kinetic) of less than 0.3 µg/mL.

`CC1(c2ccccc2)NC(=O)N(CC(=O)N2CC(=O)Nc3ccccc32)C1=O` (stereo not given) returned a solubility (kinetic) of 23.2 µg/mL (≈ 61.3 µM).

`Cc1ccc([N+](=O)[O-])cc1NC(=O)C[n+]1ccccc1.[Cl-]` displayed a kinetic solubility of more than 46.2 µg/mL.

In the case of `COCCCNC(=O)C(=O)NC1CCCCC1C` (stereo not given), the kinetic solubility was more than 38.5 µg/mL.

The compound `O=C(CNCCO)Nc1ccc(F)c(Cl)c1` showed a kinetic solubility of more than 37 µg/mL.

Consider `CC(=O)c1ccc(CC2SC(N)=NC2=O)cc1` (stereo not given), for which the solubility (kinetic) was more than 37.2 µg/mL.

Turning to `Cc1cc(C(=O)OCC(=O)Nc2ccccc2C#N)c(C)o1`, the solubility (kinetic) is 8.9 µg/mL (≈ 29.8 µM).

The compound `CCN(C(=O)c1ccc(Br)cc1)c1ccccc1` displayed a kinetic solubility of 32.4 µg/mL (≈ 107 µM).

As for `COc1ccccc1CCNC(=O)c1c(C)nn(CC(C)C)c1Cl`, the solubility (kinetic) is more than 52.5 µg/mL.

In turn, `CCOC(=O)C(=CNc1ccc2c(c1)CCN2C(C)=O)C(=O)OCC` came in with a solubility (kinetic) of 9.9 µg/mL (≈ 28.6 µM).

Take `O=C(COC(=O)c1ccc(O)cc1)Nc1ncc(Cl)cc1Cl`: the solubility (kinetic) was determined as 31.5 µg/mL (≈ 92.3 µM).

In the case of `CCOc1ccccc1C(=O)NCC(=O)O`, the kinetic solubility is more than 33.5 µg/mL.

Compound `CC1CC(C)CN(C(=O)CCn2c(=O)oc3ccccc32)C1` (stereo not given) showed a kinetic solubility of more than 45.4 µg/mL.

Regarding `CN(CC(=O)Nc1cccc(F)c1)C(=O)CC1CCCC1`, the solubility (kinetic) is more than 43.9 µg/mL.

For orientation: kinetic solubility means solubility judged after dilution from a stock solution rather than from solid.
